Assay [1] concerns the target human Kv1.3 (Homo sapiens, UniProt P22001). It is filed as cell-based. Further details: expressed in transfected cells.
Assay [2] deals with thapsigargin-induced IFN-g production in human whole blood. Format: cell-based. The following applies: read-out: Analogue Activity (IC50) WB/IFNg.
Assay [3] has as its system thapsigargin-induced IL-2 production in human whole blood. The following applies: read-out: Analogue Activity (IC50) WB/IL-2.

Molecules are shown by their SMILES. Bridge positions count the residues as written; N and C are the ends. Peptide text beside a SMILES is read from it.

Chain of human Kv1.3 (P22001 whole entry): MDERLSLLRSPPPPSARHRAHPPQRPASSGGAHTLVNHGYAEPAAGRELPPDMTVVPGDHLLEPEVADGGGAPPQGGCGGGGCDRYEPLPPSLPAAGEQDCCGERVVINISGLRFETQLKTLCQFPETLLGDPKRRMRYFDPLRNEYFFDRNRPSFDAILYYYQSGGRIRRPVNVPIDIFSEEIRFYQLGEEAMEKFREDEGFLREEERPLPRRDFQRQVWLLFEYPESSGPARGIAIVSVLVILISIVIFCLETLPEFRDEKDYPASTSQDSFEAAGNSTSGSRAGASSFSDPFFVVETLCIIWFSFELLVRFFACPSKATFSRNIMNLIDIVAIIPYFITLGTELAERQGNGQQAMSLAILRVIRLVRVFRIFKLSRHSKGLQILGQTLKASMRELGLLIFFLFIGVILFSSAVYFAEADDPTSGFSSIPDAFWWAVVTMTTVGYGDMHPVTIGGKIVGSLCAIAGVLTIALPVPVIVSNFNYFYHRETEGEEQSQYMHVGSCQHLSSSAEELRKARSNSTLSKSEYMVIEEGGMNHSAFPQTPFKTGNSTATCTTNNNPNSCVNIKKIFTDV

Turning to `CC[C@H](C)[C@@H]1NC(=O)[C@H](CCCCN)NC(=O)[C@@H](NC(=O)[C@H](CCCCN)NC(=O)[C@@H](NC(=O)[C@H](CC(N)=O)NC(=O)[C@@H](NC(=O)[C@@H](NC(=O)[C@@H](NC(=O)CN)C(C)C)[C@@H](C)CC)[C@@H](C)CC)C(C)C)CSSC[C@@H]2NC(=O)[C@H](CCCCN)NC(=O)CNC(=O)[C@H](Cc3ccccc3)NC(=O)[C@H](CCCNC(=N)N)NC(=O)[C@H](CCSC)NC(=O)CNC(=O)[C@H](C)NC(=O)[C@H](CCCCN)NC(=O)[C@H](CCCCN)NC(=O)[C@@H]3CSSC[C@@H](C(=O)N[C@H](C(=O)N[C@@H](CCC(=O)O)C(=O)N[C@@H](CCCCN)C(=O)O)[C@@H](C)O)NC(=O)[C@H](Cc4c[nH]cn4)NC(=O)[C@H](CSSC[C@H](NC(=O)[C@H](CCC(N)=O)NC(=O)[C@H](CCCNC(=N)N)NC(=O)[C@H](CO)NC1=O)C(=O)N[C@@H](CC(C)C)C(=O)N[C@@H](CCC(=O)O)C(=O)N1CCC[C@H]1C(=O)N3)NC(=O)[C@H](CCCCN)NC(=O)CNC(=O)[C@H](CC(N)=O)NC(=O)[C@H](CCSC)NC2=O` [P37E] (H-GVIINVKCKISRQCLEPCKKAGMRFGKCMNGKCHCTEK-OH; disulfide 8-28, 14-33, 18-35), the “Kv1.3 Selectivity (= Kv1.1/Kv.3 IC50)” value in assay [1] came to 65. For the same molecule, the figures for the IC50 in assay [2] and in assay [3] were 1.6 nM and 0.239 nM, respectively.

With `CC[C@H](C)[C@@H]1NC(=O)[C@H](CCCCN)NC(=O)[C@@H](NC(=O)[C@H](CCCCN)NC(=O)[C@@H](NC(=O)[C@H](CC(N)=O)NC(=O)[C@@H](NC(=O)[C@@H](NC(=O)[C@@H](NC(=O)CN)C(C)C)[C@@H](C)CC)[C@@H](C)CC)C(C)C)CSSC[C@@H]2NC(=O)[C@H](CCCCN)NC(=O)CNC(=O)[C@H](Cc3ccccc3)NC(=O)[C@H](CCCNC(=N)N)NC(=O)[C@H](CCSC)NC(=O)CNC(=O)[C@H](C)NC(=O)[C@H](CCCCN)NC(=O)[C@H](CCCCN)NC(=O)[C@@H]3CSSC[C@@H](C(=O)N[C@H](C(=O)N4CCC[C@H]4C(=O)N[C@@H](CCCCN)C(=O)O)[C@@H](C)O)NC(=O)[C@H](Cc4c[nH]cn4)NC(=O)[C@H](CSSC[C@H](NC(=O)[C@H](CCC(N)=O)NC(=O)[C@H](CCCNC(=N)N)NC(=O)[C@H](CCCNC(=N)N)NC1=O)C(=O)N[C@@H](CC(C)C)C(=O)N[C@@H](CCC(=O)O)C(=O)N1CCC[C@H]1C(=O)N3)NC(=O)[C@H](CCCCN)NC(=O)CNC(=O)[C@H](CC(N)=O)NC(=O)[C@H](CCSC)NC2=O` [S11R] (H-GVIINVKCKIRRQCLEPCKKAGMRFGKCMNGKCHCTPK-OH; disulfide 8-28, 14-33, 18-35), in assay [1], the “Kv1.3 Selectivity (= Kv1.1/Kv.3 IC50)” value was 228. Besides, the IC50 came to 4.07 nM in assay [2] and 2.12 nM in assay [3].

With `CC[C@H](C)[C@@H]1NC(=O)[C@H](CCCCN)NC(=O)[C@@H](NC(=O)[C@H](CCCCN)NC(=O)[C@@H](NC(=O)[C@H](CC(N)=O)NC(=O)[C@@H](NC(=O)[C@@H](NC(=O)[C@@H](NC(=O)CN)C(C)C)[C@@H](C)CC)[C@@H](C)CC)C(C)C)CSSC[C@@H]2NC(=O)[C@H](CCCCN)NC(=O)CNC(=O)[C@H](Cc3ccccc3)NC(=O)[C@H](CCCNC(=N)N)NC(=O)[C@H](CCSC)NC(=O)CNC(=O)[C@H](C)NC(=O)[C@H](CCCCN)NC(=O)[C@H](CCCCN)NC(=O)[C@@H]3CSSC[C@@H](C(=O)N[C@H](C(=O)N4CCC[C@H]4C(=O)N[C@@H](CCCCN)C(=O)O)[C@@H](C)O)NC(=O)[C@H](Cc4c[nH]cn4)NC(=O)[C@H](CSSC[C@H](NC(=O)[C@H](CCC(N)=O)NC(=O)[C@H](CCCNC(=N)N)NC(=O)[C@H](CO)NC1=O)C(=O)N[C@@H](CCC(=O)O)C(=O)N[C@@H](CCC(=O)O)C(=O)N1CCC[C@H]1C(=O)N3)NC(=O)[C@H](CCCCN)NC(=O)CNC(=O)[C@H](CC(N)=O)NC(=O)[C@H](CCSC)NC2=O` [L15E] (H-GVIINVKCKISRQCEEPCKKAGMRFGKCMNGKCHCTPK-OH; disulfide 8-28, 14-33, 18-35), in assay [1], the “Kv1.3 Selectivity (= Kv1.1/Kv.3 IC50)” value is 342. Also, the IC50 in assay [2] was 1.06 nM; in assay [3] it was 0.785 nM.
